Experimental data reported in patent US10934274B2, “Quinoline derivatives as TAM RTK inhibitors” (Qurient Co., Ltd., priority 2015, dated 2021).

Tests used:
HCC827/ER cells = assay: WST-1 cell viability assay in erlotinib-resistant cells; conditions: compound combined with Erlotinib at constant 1:1 ratio, 3 days, FBS 1%
Method: The killed cells were discarded and the remaining cells were cultured in a drug-free medium up to 80% confluence. Subsequently, cells were continuously exposed to increasing drug doses of up to 10 μM over a period of 8 months.
HCC827/ER cells were seeded in a 96-well plate with their respective media containing 10% FBS at 5000 cells/well. After seeding, the HCC827/ER cells were incubated for approximately 24 hours. […] The viability of the HCC827/ER cells was determined by adding WST-1 reagent according to Manufacturer's instructions (DoGenbio co., Ltd) and incubating for four hours. The plates were then read using an absorbance of 440 nm on Tecan Microplate reader (Infinite M200 pro, TECAN). The HCC827/ER cells' viability were calculated relative to vehicle (DMSO) control wells.

Met = target: T1, Met (Homo sapiens, UniProt P08581); assay: LanthaScreen Eu kinase binding assay, Met; conditions: Tracer 236, read-out: cMet kinase binding activity (Kd)
T1 construct: purchased Life Technologies

Mer = target: T2, Mer (Homo sapiens, UniProt Q12866); assay: LanthaScreen Eu kinase binding assay, Mer; conditions: Tracer 236
T2 construct: purchased Life Technologies
T2 sequence (Q12866 21-999): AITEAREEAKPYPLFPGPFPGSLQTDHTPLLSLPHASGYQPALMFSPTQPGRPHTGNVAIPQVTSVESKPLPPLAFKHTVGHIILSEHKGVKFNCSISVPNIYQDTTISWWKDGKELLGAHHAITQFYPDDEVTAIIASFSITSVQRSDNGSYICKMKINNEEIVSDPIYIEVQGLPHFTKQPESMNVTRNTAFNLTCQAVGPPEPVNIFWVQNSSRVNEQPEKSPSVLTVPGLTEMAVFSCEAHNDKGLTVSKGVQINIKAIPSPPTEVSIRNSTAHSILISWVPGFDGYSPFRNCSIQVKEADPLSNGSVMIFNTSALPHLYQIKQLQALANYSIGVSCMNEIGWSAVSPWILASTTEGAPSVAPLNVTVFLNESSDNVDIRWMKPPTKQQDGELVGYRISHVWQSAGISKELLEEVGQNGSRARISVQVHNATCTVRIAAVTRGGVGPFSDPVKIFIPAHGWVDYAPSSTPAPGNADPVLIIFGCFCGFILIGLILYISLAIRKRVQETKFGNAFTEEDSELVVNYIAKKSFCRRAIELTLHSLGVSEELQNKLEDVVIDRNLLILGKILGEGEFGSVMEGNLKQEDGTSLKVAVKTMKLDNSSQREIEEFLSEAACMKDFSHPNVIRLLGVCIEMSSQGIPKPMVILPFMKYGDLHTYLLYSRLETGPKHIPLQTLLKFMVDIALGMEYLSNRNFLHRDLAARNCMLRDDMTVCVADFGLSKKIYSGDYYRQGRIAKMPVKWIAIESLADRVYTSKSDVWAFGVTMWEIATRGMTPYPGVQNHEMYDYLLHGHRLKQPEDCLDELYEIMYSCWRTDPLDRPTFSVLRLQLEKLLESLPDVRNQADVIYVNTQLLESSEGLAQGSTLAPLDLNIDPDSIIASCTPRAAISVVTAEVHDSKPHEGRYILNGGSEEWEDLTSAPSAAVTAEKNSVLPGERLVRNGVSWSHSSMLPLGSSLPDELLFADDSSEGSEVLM

Axl = target: T3, Axl (Homo sapiens, UniProt P30530); assay: LanthaScreen Eu kinase binding assay, Axl; conditions: Tracer 236
T3 construct: purchased Life Technologies
T3 sequence (P30530 26-894): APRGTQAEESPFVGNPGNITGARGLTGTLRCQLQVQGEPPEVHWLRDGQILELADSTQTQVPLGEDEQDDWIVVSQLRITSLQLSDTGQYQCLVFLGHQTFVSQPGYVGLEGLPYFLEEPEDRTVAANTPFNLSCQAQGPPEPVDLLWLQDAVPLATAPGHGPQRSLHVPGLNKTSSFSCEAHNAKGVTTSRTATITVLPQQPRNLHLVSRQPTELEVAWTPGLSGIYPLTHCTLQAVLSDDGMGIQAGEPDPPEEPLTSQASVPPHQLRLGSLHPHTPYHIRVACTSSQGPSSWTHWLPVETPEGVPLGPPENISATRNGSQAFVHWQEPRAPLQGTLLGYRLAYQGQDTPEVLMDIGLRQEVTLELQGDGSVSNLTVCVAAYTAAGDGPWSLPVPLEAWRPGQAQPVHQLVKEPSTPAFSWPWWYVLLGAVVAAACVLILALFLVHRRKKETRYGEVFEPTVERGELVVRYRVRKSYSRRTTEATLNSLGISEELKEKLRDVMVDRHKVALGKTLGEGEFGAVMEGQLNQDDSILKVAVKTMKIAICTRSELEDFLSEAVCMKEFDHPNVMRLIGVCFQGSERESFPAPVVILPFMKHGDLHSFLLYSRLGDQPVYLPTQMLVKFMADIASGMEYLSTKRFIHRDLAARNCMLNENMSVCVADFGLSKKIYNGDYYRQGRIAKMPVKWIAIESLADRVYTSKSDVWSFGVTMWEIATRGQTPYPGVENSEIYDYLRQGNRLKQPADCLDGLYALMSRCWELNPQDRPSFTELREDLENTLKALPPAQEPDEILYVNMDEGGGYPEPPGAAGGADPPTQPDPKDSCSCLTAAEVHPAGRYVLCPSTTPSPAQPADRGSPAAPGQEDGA

T1 sequence (P08581 25-1390): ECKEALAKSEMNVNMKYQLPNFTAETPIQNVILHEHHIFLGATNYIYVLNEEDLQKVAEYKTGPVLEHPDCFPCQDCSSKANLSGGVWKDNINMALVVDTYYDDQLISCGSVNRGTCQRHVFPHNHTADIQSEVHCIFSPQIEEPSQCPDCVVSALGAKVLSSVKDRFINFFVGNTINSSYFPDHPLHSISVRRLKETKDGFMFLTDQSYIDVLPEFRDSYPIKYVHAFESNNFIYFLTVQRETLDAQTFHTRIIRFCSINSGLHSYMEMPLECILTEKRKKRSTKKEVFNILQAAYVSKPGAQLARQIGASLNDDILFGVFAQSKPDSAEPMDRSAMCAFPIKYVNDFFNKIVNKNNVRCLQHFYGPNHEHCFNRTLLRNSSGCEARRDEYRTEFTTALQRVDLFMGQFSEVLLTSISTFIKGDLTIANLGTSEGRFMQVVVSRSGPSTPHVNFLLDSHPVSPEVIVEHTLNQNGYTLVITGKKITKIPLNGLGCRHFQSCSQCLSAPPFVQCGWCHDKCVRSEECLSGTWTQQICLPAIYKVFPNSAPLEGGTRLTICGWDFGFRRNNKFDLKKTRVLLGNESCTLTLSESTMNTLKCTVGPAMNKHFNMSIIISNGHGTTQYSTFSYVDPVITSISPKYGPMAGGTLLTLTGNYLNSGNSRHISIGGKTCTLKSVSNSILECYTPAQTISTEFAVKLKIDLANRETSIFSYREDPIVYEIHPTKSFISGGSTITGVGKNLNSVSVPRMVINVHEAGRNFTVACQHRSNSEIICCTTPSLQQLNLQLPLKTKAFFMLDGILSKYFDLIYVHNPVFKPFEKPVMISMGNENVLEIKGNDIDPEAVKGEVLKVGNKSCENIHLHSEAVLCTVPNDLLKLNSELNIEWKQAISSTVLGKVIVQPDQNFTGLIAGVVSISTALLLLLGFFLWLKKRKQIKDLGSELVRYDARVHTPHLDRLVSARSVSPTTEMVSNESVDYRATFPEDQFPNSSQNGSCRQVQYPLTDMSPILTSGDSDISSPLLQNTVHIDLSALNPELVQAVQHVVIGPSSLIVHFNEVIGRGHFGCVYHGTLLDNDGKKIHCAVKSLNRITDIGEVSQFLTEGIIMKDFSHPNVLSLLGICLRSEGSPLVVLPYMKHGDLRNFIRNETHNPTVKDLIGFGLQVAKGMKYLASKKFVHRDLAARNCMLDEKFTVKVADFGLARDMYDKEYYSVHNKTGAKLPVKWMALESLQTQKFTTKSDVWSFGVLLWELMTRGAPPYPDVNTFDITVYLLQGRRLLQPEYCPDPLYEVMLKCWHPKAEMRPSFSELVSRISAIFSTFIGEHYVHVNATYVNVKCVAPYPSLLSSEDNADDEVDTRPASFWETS

| Kd (Met) | Kd (Mer) | Kd (Axl) | SMILES | Combination effect of compound and erlotinib on inhibition activity in Erlotinib-resistant cell-line (HCC827/ER cells) |
| --- | --- | --- | --- | --- |
| < 0.1 µM | < 0.1 µM | < 0.1 µM | COc1cc2nccc(Oc3ccc(NC(=O)c4nn(-c5ccc(F)cc5C)cc4OCC(F)(F)F)nc3)c2cc1OC [Compound 203] | – |
| 0.1 to 1 µM | < 0.1 µM | < 0.1 µM | CCOc1cn(-c2ccc(OC(F)(F)F)cc2F)nc1C(=O)Nc1ccc(Oc2ccnc3cc(OC)c(OC)cc23)cn1 [Compound 120] | – |
| 0.1 to 1 µM | 0.1 to 1 µM | 0.1 to 1 µM | CCOc1cn(C2CCCN(C)C2)nc1C(=O)Nc1ccc(Oc2ccnc3cc(OC)c(OC)cc23)cc1F (centres unmarked) [Compound 211] | – |

The remaining lines, values behind:

| SMILES | Kd (Met) | Kd (Mer) | Kd (Axl) | Combination effect of compound and erlotinib on inhibition activity in Erlotinib-resistant cell-line (HCC827/ER cells) |
| --- | --- | --- | --- | --- |
| CCOc1cn(-c2c(C)ccnc2C)nc1C(=O)Nc1ccc(Oc2ccnc3cc(OC)c(OC)cc23)cn1 [Compound 132] | < 0.1 µM | < 0.1 µM | < 0.1 µM | synergistic effect |
| CCOc1cn(-c2cncnc2C)nc1C(=O)Nc1ccc(Oc2ccnc3cc(OC)c(OC)cc23)cn1 [Compound 149] | < 0.1 µM | < 0.1 µM | < 0.1 µM | synergistic effect |
| CCOc1cn(-c2cnc(Cl)cn2)nc1C(=O)Nc1ccc(Oc2ccnc3cc(OC)c(OC)cc23)cn1 [Compound 169] | ≥ 1 µM | < 0.1 µM | < 0.1 µM | – |
